Test results as given in publication PMC3656107, “Polymorphisms in the F8 Gene and MHC-II Variants as Risk Factors for the Development of Inhibitory Anti-Factor VIII Antibodies during the Treatment of Hemophilia A: A Computational Assessment” (PLoS Computational Biology, 2013).

Columns and labels:
MHC-II DRB1*15:03 [1] = target: T1, MHC-II DRB1*15:03 (Homo sapiens, UniProt P01903+P01911, Y59H); experiment: Cell-free REVEAL class II stability assay; settings: half-life of peptide-MHC-II complex (h, capped at 120) x Binding Score / 100, conformational ELISA
T1 construct: purchased ProImmune
Protocol: (§1) We measured the half-life of each peptide-MHC-II complex using REVEAL peptide-MHC affinity assays developed by ProImmune Ltd. (Oxford, UK). On-rates of peptides were measured over a 96-hr period at 10°C. A unique positive control peptide was used for each MHC-II allele. Samples of assembling peptide-MHC complexes were taken at defined time points and snap-frozen in liquid nitrogen prior to analysis. Assembly of peptide-MHC complexes was detected using a conformational ELISA involving an anti-HLA antibody. On-rates were calculated by fitting data to a one-phase association curve: [drawing 1] To determine the off-rates of the peptides, samples of dissociating complexes were taken at defined time points and frozen in liquid nitrogen prior to analysis. Percent denaturation of peptide-MHC complexes was also detected using a conformational ELISA. Off-rates were calculated by fitting data to a one-phase dissociation curve: [drawing 2] On- and off-rate half-life values (t1/2) were calculated from the rate constant (k) using the following equation: [drawing 3] To obtain a normalized stability score, the half-life values were multiplied by the Binding Score (see above) and divided by 100.

MHC-II DRB1*11:01 [2] = target: T2, MHC-II DRB1*11:01 (Homo sapiens, UniProt P01903+P01911, A100R/A169T/A87E/I96F/K41T/L162R/M171V/P40S/Q125H/Q178H/Q39Y/Q99D/R42S/S66Y/T262R/V115G/W38E); experiment: Cell-free REVEAL class II stability assay; settings: half-life of peptide-MHC-II complex (h, capped at 120) x Binding Score / 100, conformational ELISA
Protocol: as §1

MHC-II DRB1*07:01 [3] = target: T3, MHC-II DRB1*07:01 (Homo sapiens, UniProt P01903+P01911, A100R/A102G/A103Q/D57E/D86V/E43K/F76Y/K127E/L162R/M171V/P40G/Q125H/Q99D/R33Q/R42Y/R54Q/S133A/S66F/T210M/V115G/Y107V/Y59L/Y89S); experiment: Cell-free REVEAL class II stability assay; settings: half-life of peptide-MHC-II complex (h, capped at 120) x Binding Score / 100, conformational ELISA
Protocol: as §1

MHC-II DRB1*15:01 [4] = target: T4, MHC-II DRB1*15:01 (Homo sapiens, UniProt P01903+P01911); experiment: Cell-free REVEAL class II stability assay; settings: half-life of peptide-MHC-II complex (h, capped at 120) x Binding Score / 100, conformational ELISA
T4 construct: purchased ProImmune
Protocol: as §1

MHC-II DRB1*04:01 [5] = target: T5, MHC-II DRB1*04:01 (Homo sapiens, UniProt P01903+P01911, A100K/A169T/F76Y/I96L/K127E/L162R/M171V/N62H/P40V/Q125Y/R42H/S133A/S149N/S66Y/V115G/V209L/W38E); experiment: Cell-free REVEAL class II stability assay; settings: half-life of peptide-MHC-II complex (h, capped at 120) x Binding Score / 100, conformational ELISA
Protocol: as §1

MHC-II DRB1*03:01 [6] = target: T6, MHC-II DRB1*03:01 (Homo sapiens, UniProt P01903+P01911, A100K/A102G/A103R/A169T/F55Y/I96L/K41T/L162R/M171V/P40S/Q125H/Q178H/Q39Y/R42S/S66N/T106N/T262R/W38E/Y61H); experiment: Cell-free REVEAL class II stability assay; settings: half-life of peptide-MHC-II complex (h, capped at 120) x Binding Score / 100, conformational ELISA
Protocol: as §1

MHC-II DRB1*15:03 [7] = target: T1, MHC-II DRB1*15:03; experiment: Cell-free REVEAL class II binding assay; settings: signal of test peptide as percentage of allele-specific positive control peptide, fluorescence, conformation-specific monoclonal antibody
Excerpt: (§2) We used a proprietary high throughput, REVEAL binding assay (ProImmune, www.proimmune.com) to estimate the binding of individual test peptides to the following MHC-II variants: DRB1*03:01, DRB1*04:01, DRB1*07:01, DRB1*11:01, DRB1*15:01 and DRB1*15:03 [28]. Detection of a peptide binding to each MHC-II protein is based on the presence or absence of the native conformation of the MHC-peptide complex. The peptide-MHC-II complex is detected by an increase in a fluorescence signal due to the binding of a specific monoclonal antibody. Each test-peptide is given a score relative to a positive control peptide, which is a known T-cell epitope for that MHC-II molecule. The score is reported quantitatively as a percentage of the signal generated by the test peptide compared with the positive control peptide. Assay performance is evaluated by including in each set of measurements an intermediate control peptide which is known to bind the MHC-II molecule but with a lower affinity than the positive control peptide. Note that the positive control peptide used to determine the binding score is different from the positive control peptides depicted in the figures, which are known T-cell epitopes identified in the FVIII molecule.

MHC-II DRB1*11:01 [8] = target: T2, MHC-II DRB1*11:01; experiment: Cell-free REVEAL class II binding assay; settings: signal of test peptide as percentage of allele-specific positive control peptide, fluorescence, conformation-specific monoclonal antibody
Excerpt: as §2

MHC-II DRB1*07:01 [9] = target: T3, MHC-II DRB1*07:01; experiment: Cell-free REVEAL class II binding assay; settings: signal of test peptide as percentage of allele-specific positive control peptide, fluorescence, conformation-specific monoclonal antibody
Excerpt: as §2

MHC-II DRB1*15:01 [10] = target: T4, MHC-II DRB1*15:01; experiment: Cell-free REVEAL class II binding assay; settings: signal of test peptide as percentage of allele-specific positive control peptide, fluorescence, conformation-specific monoclonal antibody
Excerpt: as §2

MHC-II DRB1*04:01 [11] = target: T5, MHC-II DRB1*04:01; experiment: Cell-free REVEAL class II binding assay; settings: signal of test peptide as percentage of allele-specific positive control peptide, fluorescence, conformation-specific monoclonal antibody
Excerpt: as §2

MHC-II DRB1*03:01 [12] = target: T6, MHC-II DRB1*03:01; experiment: Cell-free REVEAL class II binding assay; settings: signal of test peptide as percentage of allele-specific positive control peptide, fluorescence, conformation-specific monoclonal antibody
Excerpt: as §2

T1 sequence (P01903 26-254, other chains not shown): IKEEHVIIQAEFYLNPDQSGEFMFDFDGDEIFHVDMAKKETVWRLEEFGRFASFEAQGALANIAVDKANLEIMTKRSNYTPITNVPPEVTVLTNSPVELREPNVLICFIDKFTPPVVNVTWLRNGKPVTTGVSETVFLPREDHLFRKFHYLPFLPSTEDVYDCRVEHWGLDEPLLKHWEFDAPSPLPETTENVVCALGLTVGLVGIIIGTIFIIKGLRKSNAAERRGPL
T6 sequence (P01903 26-254 limits assumed, other chains not shown): as the sequence (P01903 26-254, other chains not shown) above
T2 sequence (P01903 26-254 limits assumed, other chains not shown): as the sequence (P01903 26-254, other chains not shown) above

Row | Sequence | Stability Index (MHC-II DRB1*15:03 [1]) | Stability Index (MHC-II DRB1*11:01 [2]) | Stability Index (MHC-II DRB1*07:01 [3]) | Stability Index (MHC-II DRB1*15:01 [4]) | Stability Index (MHC-II DRB1*04:01 [5]) | Stability Index (MHC-II DRB1*03:01 [6]) | Binding Score (MHC-II DRB1*15:03 [7]) [%] | Binding Score (MHC-II DRB1*11:01 [8]) [%] | Binding Score (MHC-II DRB1*07:01 [9]) [%] | Binding Score (MHC-II DRB1*15:01 [10]) [%] | Binding Score (MHC-II DRB1*04:01 [11]) [%] | Binding Score (MHC-II DRB1*03:01 [12]) [%]
1 | PIIARYIRLHPTHYS [synthetic wild type FVIII 15 mer peptide] | 13.3 | 9.0 | 0.0 | 1100.9 | 6.9 | 0.0 | 11.1 | 118.8 | 0.0 | 917.4 | 25.4 | 0.3
2 | RIHPQSWVHQIALRM [synthetic wild type FVIII 15 mer peptide] | 0.1 | 4.5 | 2.6 | 10.0 | 12.6 | 0.0 | 1.4 | 74.9 | 2.1 | 8.3 | 54.3 | 0.0
3 | TRYLRIHPQSWVHQI [synthetic wild type FVIII 15 mer peptide] | 30.5 | 5.3 | 40.8 | 983.1 | 0.9 | 0.0 | 25.4 | 49.4 | 34.0 | 819.2 | 8.2 | 0.0
4 | YSLDGKKWQTYRGNS [synthetic wild type FVIII 15 mer peptide] | 0.0 | 1.1 | 0.0 | 3.0 | 0.1 | 0.0 | 0.2 | 23.5 | 0.0 | 11.8 | 0.9 | 0.0
5 | PENDIEKTDPWFAHR [synthetic wild type FVIII 15 mer peptide, region of ns-SNP R776G] | 0.0 | 0.1 | 0.0 | 0.1 | 0.1 | 0.0 | 0.3 | 2.9 | 0.0 | 0.1 | 0.7 | 0.0
6 | SDPRCLTRYYSSFVN [synthetic wild type FVIII 15 mer peptide] | 16.6 | 0.5 | 0.0 | 285.5 | 0.2 | 0.0 | 13.8 | 7.8 | 0.1 | 237.9 | 2.4 | 0.5
7 | DIEKTDPWFAHRTPM [synthetic wild type FVIII 15 mer peptide, region of ns-SNP R776G] | 0.0 | 0.2 | 0.0 | 0.2 | 0.4 | 0.0 | 0.1 | 7.3 | 0.0 | 2.6 | 7.6 | 0.0
8 | PLLTRYLRIHPQSWV [synthetic wild type FVIII 15 mer peptide] | 12.8 | 8.8 | 2.0 | 857.7 | 1.4 | 0.0 | 10.7 | 62.8 | 1.7 | 714.7 | 12.1 | 0.0
9 | AHRTPMPKIQNVSSS [synthetic wild type FVIII 15 mer peptide, region of ns-SNP R776G] | 0.1 | 0.0 | 0.0 | 0.1 | 0.1 | 0.0 | 0.4 | 0.2 | 0.0 | 0.0 | 1.3 | 0.0
10 | YNIYPHGITDVRPLY [synthetic wild type FVIII 15 mer peptide, region of ns-SNP R484H] | 0.1 | 1.1 | 0.1 | 2.0 | 0.2 | 0.0 | 0.1 | 35.8 | 0.1 | 40.8 | 2.1 | 0.2
11 | TLTLFPFSGETVFMS [synthetic wild type FVIII 15 mer peptide] | 0.0 | 0.0 | 0.0 | 2.3 | 0.6 | 0.0 | 0.4 | 0.1 | 0.0 | 41.4 | 7.3 | 0.0
12 | SQFIIMYSLDGKKWQ [synthetic wild type FVIII 15 mer peptide] | 16.4 | 27.9 | 0.0 | 1746.5 | 11.8 | 0.5 | 14.6 | 100.8 | 0.0 | 1455.4 | 38.1 | 4.8
